These results are taken from patent publication US20210379204A1, “METHOD FOR CALCULATING TOLERANCE DOSE OF HUMAN BODY TO SUGAR ALCOHOL AND FUNCTIONAL SUGAR” (Zhejiang Huakang Pharmaceutical Co., Ltd., priority 2018, published 2021).

Data set [1] can be described thus: tolerated dose of a 70 kg human body converted from the rat maximum tolerated dose (K = 56.0). Particulars: rat dose N x conversion factor 56.0. From the text:
wherein K is a conversion factor between a 70 kg human body and a 200 g rat, which is 56.0; the maximum tolerated dose N of the rat to xylitol and the tolerated dose R of the human body to the xylitol are both in the unit of g/d; or,
wherein K is a conversion factor between a 70 kg human body and a 200 g rat, which is 56.0. The maximum tolerated dose N of the rat to xylitol and the tolerated dose R of the human body to the xylitol are both in the unit of g/d; or,
In the specific implementation, the maximum tolerated dose of the human body to a certain sugar alcohol or functional sugar recorded in the existing data is used as a reference value firstly. Taking xylitol as an example, the existing companies have declared that the daily intake of xylitol should not exceed 50 g. 50 g of xylitol is set as the reference value, and fluctuation is performed based on the reference value to obtain an estimated value of the experimental range. […] The experiment is continued for 14 days. Considering the experimental results and verification results comprehensively, the maximum tolerated dose N of 200 g rats to xylitol is obtained.

For data set [2] the following is noted: 200 g rats, gavage each day, 14 days; maximum dose group in which no rat has diarrhea on day 14.
Description: at step 2, continuing the step 1 for 14 days;
At step 1, 200 g rats are selected as experimental animal objects, and the 200 g rats are divided into six experimental groups and one control group, with each group including ten numbered rats; and the rats in the six experimental groups (namely, dose (1) experimental group, dose (2) experimental group, dose (3) experimental group, dose (4) experimental group, dose (5) experimental group and dose (6) experimental group) are gavaged with different doses of xylitol each day. The ten rats in each group are gavaged with the same dose.
At step 2, the step 1 is continued for 14 days.
Specifically, 50 g of xylitol was set as the reference value, and estimated values of the experimental range of the human body to xylitol were set to 20 g/d, 30 g/d, 40 g/d, 50 g/d, 60 g/d and 70 g/d (six groups in total) according to the reference value. According to the conversion formula of drug doses of experimental animal and human body, the daily experimental dose of xylitol of 200 g rats was respectively obtained as 0.36 g/d, 0.54 g/d, 0.71 g/d, 0.89 g/d, 1.07 g/d and 1.25 g/d (six groups in total), and then experiments were performed respectively.
Similarly, estimated values of the human body to L-arabinose were respectively set to 70 g/d, 80 g/d, 90 g/d, 100 g/d, 110 g/d and 120 g/d (six groups in total) as the experimental range. According to the conversion formula of drug doses of experimental animal and human body, the daily experimental dose of L-arabinose of 200 g rats was respectively obtained as 1.25 g/d, 1.43 g/d, 1.61 g/d, 1.79 g/d, 1.96 g/d and 2.14 g/d (six groups in total), and then experiments were performed respectively.
Similarly, estimated values of the human body to sorbitol were respectively set to 5 g/d, 10 g/d, 15 g/d, 20 g/d, 25 g/d and 30 g/d (six groups in total) as the experimental range. […]
The conditions of data set [3]: human daily intake, declared by some companies, no experimental data; cited from earlier work.

On to `OC[C@@H](O)[C@@H](O)[C@H](O)[C@@H](O)CO` [sorbitol], for which the “maximum tolerated dose R of the human body” value (“maximum tolerated dose R” below) in data set [1] was 20 g/day. Further, the “maximum tolerated dose N of 200 g rat” value in data set [2] came to 0.36 g/day.
On to `OC[C@@H](O)[C@H](O)[C@@H](O)CO` [xylitol], for which the “maximum tolerated dose R” value in data set [1] is 40 g/day. Further, in data set [2], the “maximum tolerated dose N of 200 g rat” value is 0.71 g/day.
Regarding `O=C[C@H](O)[C@@H](O)[C@@H](O)CO` [L-arabinose], the “maximum tolerated dose R” value in data set [1] worked out at 90 g/day. Further, the “daily intake should not exceed” value in data set [3] was no more than 120 g. Moreover, the “maximum tolerated dose N of 200 g rat” value in data set [2] came out at 1.61 g/day.
